We go through 13 compounds from patent US7119088B2, “Triazole compounds useful in therapy” (Pfizer Inc., priority 2003, dated 2006).

This assay addresses T1, human V1A receptor (Homo sapiens, UniProt P37288).
T1 construct: host or cells: CHO (CHO-hV1A), membrane preparation
The experiment in a line: V1A filter binding assay (screen 1.0). To be noted: [3H]-AVP binding to CHO-hV1A membranes; Ki by Cheng-Prusoff. On the procedure:
1.0 V1A Filter Binding Assay
Receptor binding assays were performed on cellular membranes prepared from CHO cells stably expressing the human V1A receptor, (CHO-hV1A). The CHO-hV1A cell line was kindly provided under a licensing agreement by Marc Thibonnier, Dept. of Medicine, Case Western Reserve University School of Medicine, Cleveland, Ohio. CHO-hV1A cells were routinely maintained at 37° C. in humidified atmosphere with 5% CO2 in DMEM/Hams F12 nutrient mix supplemented with 10% fetal bovine serum, 2 mM L-glutamine, 15 mM HEPES and 400 μg/ml G418. For bulk production of cell pellets, adherent CHO-hV1A cells were grown to confluency of 90–100% in 850 cm^2 roller bottles containing a medium of DMEM/Hams F12 Nutrient Mix supplemented with 10% fetal bovine serum, 2 mM L-glutamine and 15 mM HEPES. Confluent CHO-hV1A cells were washed with phosphate-buffered saline (PBS), harvested into ice cold PBS and centrifuged at 1,000 rpm. Cell pellets were stored at −80° C. until use. Cell pellets were thawed on ice and homogenised in membrane preparation buffer consisting of 50 mM Tris-HCl, pH 7.4, 5 mM MgCl2 and supplemented with a protease inhibitor cocktail, (Roche). The cell homogenate was centrifuged at 1000 rpm, 10 min, 4° C. and the supernatant was removed and stored on ice. The remaining pellet was homogenised and centrifuged as before. The supernatants were pooled and centrifuged at 25,000×g for 30 min at 4° C. The pellet was resuspended in freezing buffer consisting of 50 mM Tris-HCl, pH 7.4, 5 mM MgCl2 and 20% glycerol and stored in small aliquots at −80° C. until use. Protein concentration was determined using Bradford reagent and BSA as a standard.
Protein linearity followed by saturation binding studies were performed on each new batch of membrane. Membrane concentration was chosen that gave specific binding on the linear portion of the curve.
Compounds were tested for their effects on [^3H]-AVP binding to CHO-hV1A membranes, (^3H-AVP; specific activity 65.5 Ci/mmol; NEN Life Sciences). Compounds were solubilised in dimethylsulfoxide (DMSO) and diluted to working concentration of 10% DMSO with assay buffer containing 50 mM Tris-HCL pH 7.4, 5 mM MgCl2 and 0.05% BSA. […] The binding reaction was initiated by the addition of 200 μl membrane and the plates were gently shaken for 60 min at room temperature. […] The filters were washed three times with 1 ml ice cold wash buffer containing 50 mM Tris-HCL pH 7.4 and 5 mM MgCl2. The plates were dried and 50 μl Microscint-O (Packard instruments) was added to each well. The plates were sealed and counted on a TopCount Microplate Scintillation Counter (Packard Instruments). Non-specific binding (NSB) was determined using 1 μM unlabelled d(CH2)5Tyr(Me)AVP ([β-mercapto-β,β-cyclopentamethylenepropionyl,0-Me-Tyr^2,Arg^8]-vasopressin ) (βMCPVP), (Sigma). The radioligand binding data was analysed using a four parameter logistic equation with the min forced to 0%. […] Specific binding was calculated by subtracting the mean NSB cpm from the mean Total cpm. For test compounds the amount of ligand bound to the receptor was expressed as % bound=(sample cpm—mean NSB cpm)/specific binding cpm×100. The % bound was plotted against the concentration of test compound and a sigmoidal curve was fitted. The inhibitory dissociation constant (Ki) was calculated using the Cheng-Prusoff equation: Ki=IC50/(1+[L]/Kd) where [L] is the concentration of ligand present in the well and Kd is the dissociation constant of the radioligand obtained from Scatchard plot analysis.

Counter-ions that a name gives are not always drawn.

T1 sequence (P37288 whole entry): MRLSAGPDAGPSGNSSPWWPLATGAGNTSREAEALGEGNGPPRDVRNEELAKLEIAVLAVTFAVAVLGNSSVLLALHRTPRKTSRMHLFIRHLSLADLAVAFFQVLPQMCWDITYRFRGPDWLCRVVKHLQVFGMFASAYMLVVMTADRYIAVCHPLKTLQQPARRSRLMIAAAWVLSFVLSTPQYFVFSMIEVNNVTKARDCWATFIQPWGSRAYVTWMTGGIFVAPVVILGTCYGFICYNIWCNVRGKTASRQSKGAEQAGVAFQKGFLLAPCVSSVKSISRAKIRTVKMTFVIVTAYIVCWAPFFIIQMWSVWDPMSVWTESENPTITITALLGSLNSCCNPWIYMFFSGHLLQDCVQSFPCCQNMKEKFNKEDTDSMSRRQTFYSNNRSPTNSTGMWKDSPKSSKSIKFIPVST

In general, Ki refers to a measure of affinity in units of concentration, obtained from inhibition or displacement. A lower Ki goes with a stronger hold on the target. Turning to `CN1CCOC(CN2Cc3cc(Cl)ccc3-n3c(nnc3C3CCN(c4ccccn4)CC3)C2)C1` (single isomer, unassigned) [Example 73, 8-Chloro-5-(4-methyl-morpholin-2-ylmethyl)-1-(3,4,5,6-tetrahydro-2H-[1,2′]bipyridinyl-4-yl)-5,6-dihydro-4H-2,3,5,10b-tetraaza-benzo[e]azulene], the Ki was 6.84 nM. In other words, the single-digit nanomolar range. The same measure for `CN1CCOC(CN2Cc3cc(Cl)ccc3-n3c(nnc3C3CCN(c4ccccn4)CC3)C2)C1` (single isomer, unassigned) [Example 74, 8-Chloro-5-(4-methyl-morpholin-2-ylmethyl)-1-(3,4,5,6-tetrahydro-2H-[1,2′]bipyridinyl-4-yl)-5,6-dihydro-4H-2,3,5,10b-tetraaza-benzo[e]azulene]: 6.02 nM; for `CC(C)N1Cc2cc(Cl)ccc2-n2c(nnc2C2CCN(c3ccccn3)CC2)C1` [Example 6, 8-Chloro-5-isopropyl-1-(3,4,5,6-tetrahydro-2H-[1,2′]bipyridinyl-4-yl)-5,6-dihydro-4H-2,3,5,10b-tetraaza-benzo[e]azulene trihydrochloride]: 2.37 nM. In turn, `CN1Cc2cc(Cl)ccc2-n2c(nnc2C2CCN(c3ncccn3)CC2)C1` [Example 13, 8-Chloro-5-methyl-1-(1-pyrimidin-2-yl-piperidin-4-yl)-5,6-dihydro-4H-2,3,5,10b-tetraaza-benzo[e]azulene] returned an inhibitory constant (Ki) of 13.9 nM. With `CS(=O)(=O)N1Cc2cc(Cl)ccc2-n2c(nnc2C2CCN(c3ncccn3)CC2)C1` [Example 15, 8-Chloro-5-methanesulfonyl-1-(1-pyrimidin-2-yl-piperidin-4-yl)-5,6-dihydro-4H-2,3,5,10b-tetraaza-benzo[e]azulene], affinity was put at a Ki of 4.71 nM. Compared with the last compound, the Ki is about 3-fold lower. The compound `CN1CCc2cc(Cl)ccc2-n2c(nnc2C2CCN(c3ccccn3)CC2)C1` [Example 24, 13-Chloro-8-methyl-3-(3,4,5,6-tetrahydro-2H-[1,2′]bipyridinyl-4-yl)-2,4,5,8-tetraaza-tricyclo[9.4.0.0*2,6*]pentadeca-1(11),3,5,12,14-pentaene] displayed a Ki of 1 nM. `Clc1ccc2c(c1)CCOCc1nnc(C3CCN(c4ccccn4)CC3)n1-2` [Example 27, 13-Chloro-3-(3,4,5,6-tetrahydro-2H-[1,2′]bipyridinyl-4-yl)-8-oxa-2,4,5-triaza-tricyclo[9.4.0.0*2,6*]pentadeca-1(11),3,5,12,14-pentaene] gave a Ki of 1.25 nM. As to `CN(C)CC(=O)N1Cc2cc(Cl)ccc2-n2c(nnc2C2CCN(c3ccccn3)CC2)C1` [Example 38, 1-[8-Chloro-1-(3,4,5,6-tetrahydro-2H-[1,2′]bipyridinyl-4-yl)-4H,6H-2,3,5,10b-tetraaza-benzo[e]azulen-5-yl]-2-dimethylamino-ethanone], affinity was put at a Ki of 4.63 nM. This Ki lies about 3.7-fold higher than the previous one. The same measure for `O=C(N1CCOCC1)N1Cc2cc(Cl)ccc2-n2c(nnc2C2CCN(c3ccccn3)CC2)C1` [Example 59]: 1.32 nM; for `Clc1ccc2c(c1)CN(c1ncccn1)Cc1nnc(C3CCN(c4ccccn4)CC3)n1-2` [Example 93, 8-Chloro-5-pyrimidin-2-yl-1-(3,4,5,6-tetrahydro-2H-[1,2′]bipyridinyl-4-yl)-5,6-dihydro-4H-2,3,5,10b-tetraaza-benzo[e]azulene]: 2.33 nM; for `CN(C)S(=O)(=O)N1Cc2cc(Cl)ccc2-n2c(nnc2C2CCN(c3ncccn3)CC2)C1` [Example 100, 8-Chloro-1-(1-pyrimidin-2-yl-piperidin-4-yl)-4H,6H-2,3,5,10b-tetraaza-benzo[e]azulene-5-sulphonic acid dimethylamide]: 0.77 nM. `CN1CCc2nnc(C3CCN(c4ccccn4)CC3)n2-c2ccc(Cl)cc2C1` [Example 102, 13-Chloro-9-methyl-3-(3,4,5,6-tetrahydro-2H-[1,2′]bipyridinyl-4-yl)-2,4,5,9-tetraaza-tricyclo[9.4.0.0*2,6*]pentadeca-1(11),3,5,12,14-pentaene]: the Ki stood at 4.16 nM.

Compound `CN1CCc2cc(Cl)ccc2-n2c(nnc2C2CCN(c3ncccn3)CC2)C1` [Example 103, 13-Chloro-8-methyl-3-(1-pyrimidin-2-yl-piperidin-4-yl)-2,4,5,8-tetraaza-tricyclo[9.4.0.0*2,6*]pentadeca-1(11),3,5,12,14-pentaene] gave a Ki of 2.02 nM.
